Patent US20070049593A1 (priority 2004, published 2007)
Where a name gives a salt, the structure may show the parent alone.

These compounds were tested against T1, HCV polymerase (Hepatitis C virus genotype 1b, UniProt P26663) (assay: biochemical). Conditions: not given.
T1 construct: a region encoding NS5B (J Virol 1991 March, 65(3), 1105-13, 544 amino acids after deletion of 47 amino acids on the C-terminal); 6xHis (C); made in house; host or cells: Escherichia coli
Parameters: species or system HCV BK strain
How it was run: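 Recombinant HCV BK-strain NS5B (C-terminal 47 aa deleted, His6-tagged, E. coli), 0.5 μg/ml, run with 5 μg/ml in vitro-transcribed RNA template (polyU/3′X), ATP/GTP/CTP 50 μM, UTP 2 μM plus [3H]UTP, pH 7.5, 25° C, 90 min. TCA-precipitated RNA counted by scintillation; IC50 from activity with vs without compound.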

T1 sequence (P26663 2420-2963): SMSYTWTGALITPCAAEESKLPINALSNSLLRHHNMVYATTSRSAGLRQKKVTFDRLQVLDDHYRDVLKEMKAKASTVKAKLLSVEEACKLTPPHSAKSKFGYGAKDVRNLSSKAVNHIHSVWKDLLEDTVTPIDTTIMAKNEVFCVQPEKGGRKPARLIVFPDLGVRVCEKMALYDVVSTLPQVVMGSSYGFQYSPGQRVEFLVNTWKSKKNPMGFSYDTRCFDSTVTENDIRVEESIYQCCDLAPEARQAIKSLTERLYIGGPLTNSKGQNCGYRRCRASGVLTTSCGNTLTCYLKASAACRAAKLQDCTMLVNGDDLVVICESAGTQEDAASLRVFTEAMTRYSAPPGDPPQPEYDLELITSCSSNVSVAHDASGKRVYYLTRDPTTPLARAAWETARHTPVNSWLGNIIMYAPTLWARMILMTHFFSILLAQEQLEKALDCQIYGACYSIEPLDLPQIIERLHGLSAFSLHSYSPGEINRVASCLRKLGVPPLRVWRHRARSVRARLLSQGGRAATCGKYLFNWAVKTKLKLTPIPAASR

| Compound | IC50 [nM] |
| --- | --- |
| Cc1cc(COc2ccc3c(c2)N(CCN2CCCCC2)CCn2c-3c(C3CCCCC3)c3ccc(C(=O)O)cc32)no1 [Example 1-363, 13-cyclohexyl-3-(5-methylisoxazol-3-ylmethoxy)-5-[2-(piperidin-1-yl)ethyl]-6,7-dihydro-5H-benzo[5,6][1,4]diazepino[7,1-a]indole-10-carboxylic acid dihydrochloride] | < 100 |
| CC(C)C1CCCN(CCN2CCn3c(c(C4CCCCC4)c4ccc(C(=O)O)cc43)-c3ccccc32)C1 (stereo not shown) [Example 1-364, 13-cyclohexyl-5-[2-(3-isopropylpiperidin-1-yl)ethyl]-6,7-dihydro-5H-benzo[5,6][1,4]diazepino[7,1-a]indole-10-carboxylic acid dihydrochloride] | < 100 |
| Cc1ccc2c(c1)N(CCN1CCCC(C(C)C)C1)CCn1c-2c(C2CCCCC2)c2ccc(C(=O)O)cc21 (stereo not shown) [Example 1-365, 13-cyclohexyl-5-[2-(3-isopropylpiperidin-1-yl)ethyl]-3-methyl-6,7-dihydro-5H-benzo[5,6][1,4]diazepino[7,1-a]indole-10-carboxylic acid dihydrochloride] | < 100 |
| CCc1ccc2c(c1)N(CCN1CCCC(COC)C1)CCn1c-2c(C2CCCCC2)c2ccc(C(=O)O)cc21 (stereo not shown) [Example 1-366, 13-cyclohexyl-3-ethyl-5-[2-(3-methoxymethylpiperidin-1-yl)ethyl]-6,7-dihydro-5H-benzo[5,6][1,4]diazepino[7,1-a]indole-10-carboxylic acid dihydrochloride] | < 100 |
| COCC1CCCN(CCN2CCn3c(c(C4CCCCC4)c4ccc(C(=O)O)cc43)-c3ccc(C(C)C)cc32)C1 (stereo not shown) [Example 1-367, 13-cyclohexyl-3-isopropyl-5-[2-(3-methoxymethylpiperidin-1-yl)ethyl]-6,7-dihydro-5H-benzo[5,6][1,4]diazepino[7,1-a]indole-10-carboxylic acid dihydrochloride] | < 100 |
| CC1CCCN1CCCN1CCn2c(c(C3CCCCC3)c3ccc(C(=O)O)cc32)-c2ccc(Cl)cc21 (stereo not shown) [Example 1-368, 3-chloro-13-cyclohexyl-5-[3-(2-methylpyrrolidin-1-yl)propyl]-6,7-dihydro-5H-benzo[5,6][1,4]diazepino[7,1-a]indole-10-carboxylic acid] | < 100 |
| CCc1ccc2c(c1)N(CCC1CCCN(C(C)C)C1)CCn1c-2c(C2CCCCC2)c2ccc(C(=O)O)cc21 (stereo not shown) [Example 1-369, 13-cyclohexyl-3-ethyl-5-[2-(1-isopropylpiperidin-3-yl)ethyl]-6,7-dihydro-5H-benzo[5,6][1,4]diazepino[7,1-a]indole-10-carboxylic acid] | < 100 |
| CCOc1ccc2c(c1)N(CCN1CCCC(COC)C1)CCn1c-2c(C2CCCCC2)c2ccc(C(=O)O)cc21 (stereo not shown) [Example 1-370, 13-cyclohexyl-3-ethoxy-5-[2-(3-methoxymethylpiperidin-1-yl)ethyl]-6,7-dihydro-5H-benzo[5,6][1,4]diazepino[7,1-a]indole-10-carboxylic acid] | < 100 |
| CC(C)N1CCCC(OCCN2CCn3c(c(C4CCCCC4)c4ccc(C(=O)O)cc43)-c3ccc(Cl)cc32)C1 (stereo not shown) [Example 1-371, 3-chloro-13-cyclohexyl-5-[2-(1-isopropylpiperidin-3-yloxy)ethyl]-6,7-dihydro-5H-benzo[5,6][1,4]diazepino[7,1-a]indole-10-carboxylic acid] | < 100 |
| CCC1CCCN(CCCN2CCn3c(c(C4CCCCC4)c4ccc(C(=O)O)cc43)-c3ccc(Cl)cc32)C1 (stereo not shown) [Example 1-372, 3-chloro-13-cyclohexyl-5-[3-(3-ethylpiperidin-1-yl)propyl]-6,7-dihydro-5H-benzo[5,6][1,4]diazepino[7,1-a]indole-10-carboxylic acid dihydrochloride] | < 100 |
| Cc1cc(COc2ccc3c(c2)N(CCN(C)C)CCn2c-3c(C3CCCCC3)c3ccc(C(=O)O)cc32)no1 [Example 1-374, 13-cyclohexyl-5-(2-dimethylaminoethyl)-3-(5-methylisoxazol-3-ylmethoxy)-6,7-dihydro-5H-benzo[5,6][1,4]diazepino[7,1-a]indole-10-carboxylic acid dihydrochloride] | < 100 |
| CC(C)COc1ccc2c(c1)N(CCN1CCCC(C)C1)CCn1c-2c(C2CCCCC2)c2ccc(C(=O)O)cc21 (stereo not shown) [Example 1-375, 13-cyclohexyl-3-isobutoxy-5-[2-(3-methylpiperidin-1-yl)ethyl]-6,7-dihydro-5H-benzo[5,6][1,4]diazepino[7,1-a]indole-10-carboxylic acid dihydrochloride] | < 100 |
| CCC1CCCN(CCN2CCn3c(c(C4CCCCC4)c4ccc(C(=O)O)cc43)-c3ccc(OCC(C)C)cc32)C1 (stereo not shown) [Example 1-376, 13-cyclohexyl-5-[2-(3-ethylpiperidin-1-yl)ethyl]-3-isobutoxy-6,7-dihydro-5H-benzo[5,6][1,4]diazepino[7,1-a]indole-10-carboxylic acid dihydrochloride] | < 100 |
| COCC1CCCN(CCN2CCn3c(c(C4CCCCC4)c4ccc(C(=O)O)cc43)-c3ccc(OCC(C)C)cc32)C1 (stereo not shown) [Example 1-377, 13-cyclohexyl-3-isobutoxy-5-[2-(3-methoxymethylpiperidin-1-yl)ethyl]-6,7-dihydro-5H-benzo[5,6][1,4]diazepino[7,1-a]indole-10-carboxylic acid dihydrochloride] | < 100 |
| CCN(CC)CCCN1CCn2c(c(C3CCCCC3)c3ccc(C(=O)O)cc32)-c2ccc(C)cc21 [Example 1-378, 13-cyclohexyl-5-(3-diethylaminopropyl)-3-methyl-6,7-dihydro-5H-benzo[5,6][1,4]diazepino[7,1-a]indole-10-carboxylic acid dihydrochloride] | < 100 |
| O=C(O)c1ccc2c(C3CCCCC3)c3n(c2c1)CCN(CCC1CCCN(C2CCCCC2)C1)c1cc(Cl)ccc1-3 (stereo not shown) [Example 1-379, 3-chloro-13-cyclohexyl-5-[2-(1-cyclohexylpiperidin-3-yl)ethyl]-6,7-dihydro-5H-benzo[5,6][1,4]diazepino[7,1-a]indole-10-carboxylic acid dihydrochloride] | < 100 |
| Cc1ccc2c(c1)N(CCC1CCCN(C3CCCC3)C1)CCn1c-2c(C2CCCCC2)c2ccc(C(=O)O)cc21 (stereo not shown) [Example 1-380, 13-cyclohexyl-5-[2-(1-cyclopentylpiperidin-3-yl)ethyl]-3-methyl-6,7-dihydro-5H-benzo[5,6][1,4]diazepino[7,1-a]indole-10-carboxylic acid dihydrochloride] | < 100 |
| CC(C)c1ccc2c(c1)N(CCC1CCCN(C(C)C)C1)CCn1c-2c(C2CCCCC2)c2ccc(C(=O)O)cc21 (stereo not shown) [Example 1-381, 13-cyclohexyl-3-isopropyl-5-[2-(1-isopropylpiperidin-3-yl)ethyl]-6,7-dihydro-5H-benzo[5,6][1,4]diazepino[7,1-a]indole-10-carboxylic acid dihydrochloride] | < 100 |

Same assay, conditions: 25° C., 90 min; [5,6-3H]UTP incorporation into RNA; read-out: HCV polymerase inhibitory activity IC50

| Compound | IC50 [nM] |
| --- | --- |
| CC(C)COc1ccc2c(c1)N(CCN1CCCCC1)CCn1c-2c(C2CCCCC2)c2ccc(C(=O)O)cc21 [Example 1-373, 13-cyclohexyl-3-isobutoxy-5-[2-(piperidin-1-yl)ethyl]-6,7-dihydro-5H-benzo[5,6][1,4]diazepino[7,1-a]indole-10-carboxylic acid dihydrochloride] | < 100 |
